ChEMBL document CHEMBL4402555, “Impact of the structure-activity relationship of AHL analogues on quorum sensing in Gram-negative bacteria” (Bioorg Med Chem, 2020)
Blank lines part the entries; values can stand above or below the compound they belong to.

Assays:
[1] = target: T1, Transcriptional activator protein LuxR (Aliivibrio fischeri, UniProt P12746); test: Antagonist activity at Aliivibrio fischeri LuxR by luminescence method
T1 sequence (P12746 whole entry): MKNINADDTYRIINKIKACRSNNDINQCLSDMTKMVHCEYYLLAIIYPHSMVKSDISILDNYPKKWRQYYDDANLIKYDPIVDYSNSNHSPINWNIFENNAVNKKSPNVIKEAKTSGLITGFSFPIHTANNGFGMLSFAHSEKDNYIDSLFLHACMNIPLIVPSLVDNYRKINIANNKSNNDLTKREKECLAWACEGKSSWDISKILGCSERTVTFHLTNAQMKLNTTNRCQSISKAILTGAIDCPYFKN

[2] = target: T2, Transcriptional activator protein LasR (Pseudomonas aeruginosa (strain ATCC 15692 / PAO1 / 1C / PRS 101 / LMG12228), UniProt P25084); test: Inhibition of LasR in Pseudomonas aeruginosa PAO-JP2 harboring plasI-LVAgfp incubated for 6 hrs by fluorescence method
T2 sequence (P25084 whole entry): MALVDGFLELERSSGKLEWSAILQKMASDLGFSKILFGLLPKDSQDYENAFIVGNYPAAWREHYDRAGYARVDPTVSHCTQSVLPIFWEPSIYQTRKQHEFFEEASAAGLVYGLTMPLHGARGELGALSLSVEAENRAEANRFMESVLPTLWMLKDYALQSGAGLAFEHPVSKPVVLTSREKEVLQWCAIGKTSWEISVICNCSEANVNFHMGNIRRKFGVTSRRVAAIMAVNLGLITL

[3] = Inhibition of LasR in Escherichia coli JLD271 harboring pSC11/pJN105L using CPRG as substrate incubated for 4 hrs by Miller assay method
[4] = Activation of LasR in Escherichia coli JLD271 harboring pSC11/pJN105L using CPRG as substrate incubated for 4 hrs by Miller assay method
[5] = target: T1, Transcriptional activator protein LuxR; test: Agonist activity at Aliivibrio fischeri LuxR by luminescence method
[6] = target: T1, Transcriptional activator protein LuxR; test: Antagonist activity at Aliivibrio fischeri ES114 LuxR after 4 to 8 hrs by luminescence method
[7] = test system: Chromobacterium violaceum; test: Inhibition of CviI/CviR in Chromobacterium violaceum ATCC 31532 assessed as reduction in violacein production at 40 uM incubated for 24 hrs relative to control
[8] = Inhibition of CviI/CviR in Chromobacterium violaceum ATCC 31532 assessed as reduction in violacein production incubated for 24 hrs
[9] = test system: Pseudomonas aeruginosa PAO1; test: Inhibition of LasI/LasR in Pseudomonas aeruginosa PAO1 assessed as reduction in swarming motility at 400 uM incubated for 18 hrs relative to control
[10] = test system: Pseudomonas aeruginosa PAO1; test: Inhibition of LasI/LasR in Pseudomonas aeruginosa PAO1 assessed as reduction in protein-mediated transition from microcolonies to mature biofilm at 400 uM incubated for 22 hrs by crystal violet staining assay relative to control
Pseudomonas aeruginosa [11] = test: Inhibition of LasI/LasR in Pseudomonas aeruginosa ATCC 9027 assessed as reduction in protein-mediated transition from microcolonies to mature biofilm at 400 uM incubated for 22 hrs by crystal violet staining assay relative to control
Pseudomonas aeruginosa [12] = test: Inhibition of LasI/LasR in Pseudomonas aeruginosa ATCC 15422 assessed as reduction in protein-mediated transition from microcolonies to mature biofilm at 400 uM incubated for 22 hrs by crystal violet staining assay relative to control
[13] = target: T3, Regulatory protein SdiA (Escherichia coli (strain K12)) (UniProt P07026); test: Inhibition of sdiA in Escherichia coli K-12 assessed as reduction in protein-mediated transition from microcolonies to mature biofilm at 400 uM incubated for 22 hrs by crystal violet staining assay relative to control
T3 sequence (whole entry): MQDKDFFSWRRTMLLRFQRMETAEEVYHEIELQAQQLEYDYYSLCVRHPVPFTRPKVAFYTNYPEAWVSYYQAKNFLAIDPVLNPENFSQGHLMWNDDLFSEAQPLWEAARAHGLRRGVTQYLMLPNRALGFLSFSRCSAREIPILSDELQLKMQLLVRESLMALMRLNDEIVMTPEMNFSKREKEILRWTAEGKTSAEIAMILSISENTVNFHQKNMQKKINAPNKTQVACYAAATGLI

HL = test: Cytotoxicty against human HL cells at 100 uM after 24 hrs by CellTiter Glo assay relative to control; format: cell-based
RAW264.7 = test: Cytotoxicty against mouse RAW264.7 cells at 100 uM after 24 hrs by CellTiter Glo assay relative to control; format: cell-based; settings: raw264.7, 24 h
[14] = target: T1, Transcriptional activator protein LuxR; test: Inhibition of Aliivibrio fischeri LuxR by luminescence method
[15] = target: T2, Transcriptional activator protein LasR; test: Antagonist activity at LasR in Pseudomonas aeruginosa harboring plasI-LVAgfp assessed as inhibition of GFP production incubated for 6 hrs by fluorescence method
[16] = Antagonist activity at LasR in Escherichia coli JLD271 harboring pSC11/ pJN105L using CPRG as substrate incubated for 4 hrs by Miller assay
[17] = target: T2, Transcriptional activator protein LasR; test: Antagonist activity at Pseudomonas aeruginosa LasR transfected with lasB-GFP by […] method
[18] = target: T2, Transcriptional activator protein LasR; test: Activation of LasR in Pseudomonas aeruginosa PAO-JP2 harboring plasI-LVAgfp incubated for 6 hrs by fluorescence method

Structure (SMILES): COc1ccc(CC(=O)CC(=O)NC2CCOC2=O)cc1 (configuration not stated)
IC50 [1]: 3 µM

Structure (SMILES): O=C(CCCc1ccccc1)N[C@H]1CCOC1=O
IC50 [2]: 175 µM | IC50 [3]: 1 µM

Structure (SMILES): O=C(CC(=O)NC1CCOC1=O)Cc1ccc(F)cc1 (configuration not stated)
IC50 [1]: 4 µM

Structure (SMILES): CCCCCCC(=O)N[C@H]1CCOC1=O
IC50 [6]: 1.4 µM | IC50 [2]: > 100 µM | IC50 [3]: 2.8 µM

Structure (SMILES): O=C(CC(=O)NC1CCOC1=O)Cc1cccc(Cl)c1 (configuration not stated)
IC50 [1]: 4 µM

Structure (SMILES): O=C(CC(=O)NC1CCOC1=O)Cc1ccc(Br)cc1 (configuration not stated)
IC50 [1]: 2 µM

Structure (SMILES): O=C1OCCC1NS(=O)(=O)CCCc1ccccc1 (configuration not stated)
IC50 [1]: 20 µM

Structure (SMILES): O=C(CC(=O)NC1CCOC1=O)Cc1ccccc1Cl (configuration not stated)
IC50 [1]: 6 µM

Structure (SMILES): CCC(=O)CC(=O)Nc1ccccc1
IC50 [2]: 9.7 µM | EC50 [4]: 0.92 µM

Structure (SMILES): CCCCCCCCCNC(=O)CC(=O)Cc1ccccc1
IC50 [15]: 15 µM | IC50 [16]: 2 µM

Structure (SMILES): O=C1OCCC1NS(=O)(=O)CCc1ccccc1 (configuration not stated)
IC50 [1]: 3 µM

Structure (SMILES): O=C(Cc1ccc(C(F)(F)F)cc1)N[C@H]1CCOC1=O
IC50 [6]: 0.6 µM | IC50 [2]: 3 µM | EC50 [18]: 140 µM | EC50 [4]: 0.65 µM

Structure (SMILES): O=C(CC(=O)NC1CCOC1=O)Cc1ccc(Cl)cc1 (configuration not stated)
IC50 [1]: 3 µM

Structure (SMILES): CCC(=O)CC(=O)Nc1ccccc1O
EC50 [18]: 17 µM | EC50 [4]: 0.096 µM

Structure (SMILES): O=C(CC(=O)NC1CCOC1=O)Cc1ccc(C(F)(F)F)cc1 (configuration not stated)
IC50 [1]: 10 µM

More lines, main results first:

IC50 [3]: 0.078 µM | EC50 [4]: 4.5 µM
Structure (SMILES): CCCCCC(=O)CC(=O)N[C@H]1CCOC1=O

IC50 [3]: 0.49 µM | EC50 [4]: 33 µM
Structure (SMILES): O=C(CCCOc1ccc(Cl)cc1)N[C@H]1CCOC1=O

IC50 [1]: 40 µM
Structure (SMILES): O=C(Cc1ccccc1)CS(=O)(=O)NC1CCOC1=O (configuration not stated)

EC50 [5]: 0.5 µM
Structure (SMILES): CC(C)CC(=O)CC(=O)N[C@H]1CCOC1=O

IC50 [1]: 40 µM
Structure (SMILES): CCCCCCCCCS(=O)(=O)NC1CCOC1=O (configuration not stated)

EC50 [4]: 0.0078 µM
Structure (SMILES): O=C(NCc1cc(Br)cc(Br)c1OC(=O)c1ccccc1[N+](=O)[O-])c1ccccc1Cl

IC50 [3]: 0.16 µM | EC50 [4]: 8.4 µM
Structure (SMILES): O=C(CCc1ccc(Br)cc1)N[C@H]1CCOC1=O

IC50 [3]: 70 µM
Structure (SMILES): O=C(Nc1ccccc1NC(=O)c1cccc(Cl)c1)c1cccc(Cl)c1

IC50 [1]: 2 µM
Structure (SMILES): CCCCCS(=O)(=O)NC1CCOC1=O (configuration not stated)

inhibition [7]: 99.7% | IC50 [8]: 9.6 µM | inhibition [9]: 72.1% | inhibition [10]: 42.3% | inhibition (Pseudomonas aeruginosa [11]): 27.2% | inhibition (Pseudomonas aeruginosa [12]): 11.2% | inhibition [13]: 51.3%
Structure (SMILES): CCC(=O)Oc1c(-c2ccccc2Cl)oc2ccccc2c1=O
Activity (HL): 11.2% | Activity (RAW264.7): 97.7%

IC50 [14]: 0.13 µM
Structure (SMILES): CCCCCCCCCC(=O)N[C@H]1CCSC1=O

IC50 [1]: 2 to 3 µM
Structure (SMILES): O=C(CCCc1ccccc1)NC1CCOC1=O (configuration not stated)

IC50 [17]: 50 µM
Structure (SMILES): CCCCCCCCCSCC(=O)N[C@H]1CCOC1=O

IC50 [3]: 2.3 µM
Structure (SMILES): CCCCCCCCCNC(=O)CC(=O)c1ccccc1

inhibition [7]: 83.5% | IC50 [8]: 13.9 µM | inhibition [9]: 69.8% | inhibition [10]: 11.6% | inhibition (Pseudomonas aeruginosa [11]): 22.5% | inhibition (Pseudomonas aeruginosa [12]): 28.1% | inhibition [13]: 14.3%
Structure (SMILES): CCCCCCCCCC(=O)Oc1c(-c2ccc(OC)cc2)oc2ccccc2c1=O

EC50 [5]: 0.25 µM
Structure (SMILES): O=C(CC(=O)N[C@H]1CCOC1=O)CC1CCCC1
